From patent US20110098352A1, “N,N-DISUBSTITUTED AMINOALKYLBIPHENYL ANTAGONISTS OF PROSTAGLANDIN D2 RECEPTORS” (AMIRA PHARMACEUTICALS, INC., priority 2008, published 2011)

Key:
[1] = biological target: T1, recombinant human CRTH2 receptor (Homo sapiens, UniProt Q9Y5Y4); assay: GTPγS binding assay; format: biochemical; conditions: +HSA; CHO cell membranes, 80 nM PGD2; read-out: hDP2 GTPγS μM (+HSA)
T1 construct: expressed in transfected cells
T1 sequence (Q9Y5Y4 1-395): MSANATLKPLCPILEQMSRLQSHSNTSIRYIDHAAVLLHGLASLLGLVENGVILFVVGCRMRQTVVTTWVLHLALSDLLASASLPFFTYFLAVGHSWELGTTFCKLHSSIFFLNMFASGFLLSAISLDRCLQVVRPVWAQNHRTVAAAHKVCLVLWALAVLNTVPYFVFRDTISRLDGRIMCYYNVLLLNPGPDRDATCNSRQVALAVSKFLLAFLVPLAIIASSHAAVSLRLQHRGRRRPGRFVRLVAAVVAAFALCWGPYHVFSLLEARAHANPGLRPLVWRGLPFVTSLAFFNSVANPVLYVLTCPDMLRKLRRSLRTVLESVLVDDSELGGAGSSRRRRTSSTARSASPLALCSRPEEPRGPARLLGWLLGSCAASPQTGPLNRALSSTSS
Description: The ability of a compound to inhibit binding of GTP to DP2 is assessed via a membrane GTPγS assay. CHO cells stably expressing the recombinant human CRTH2 receptor are resuspended in 10 mM Hepes, 7.4 containing 1 mM DTT, lysed and centrifuged at 75,000×g to pellet the membranes. The membranes are resuspended in 10 mM Hepes, 7.4 containing 1 mM DTT and 10% glycerol. […] The reactions are terminated by rapid filtration through Whatman GF/B glass fibre filter plates. The filter plates are washed 3 times with 1 ml cold Assay Buffer and dried. Scintillant is then added to the plates and the radioactivity retained on the filters is determined on a Packard TopCount (Perkin Elmer). Specific binding is determined as total radioactive binding minus non-specific binding in the absence of the ligand (80 nM PGD2). IC50s were determined using Graphpad prism analysis of drug titration curves.

human DP1 receptor = biological target: T2, human DP1 receptor (Homo sapiens, UniProt Q13258); assay: DP1 radioligand membrane binding assay using [3H]BWA868C; conditions: [3H]BWA868C binding, human platelet membranes; read-out: hDP1
T2 construct: tissue Biological Specialty Corporation; host or cells: human platelets, membranes
T2 sequence (Q13258 1-359): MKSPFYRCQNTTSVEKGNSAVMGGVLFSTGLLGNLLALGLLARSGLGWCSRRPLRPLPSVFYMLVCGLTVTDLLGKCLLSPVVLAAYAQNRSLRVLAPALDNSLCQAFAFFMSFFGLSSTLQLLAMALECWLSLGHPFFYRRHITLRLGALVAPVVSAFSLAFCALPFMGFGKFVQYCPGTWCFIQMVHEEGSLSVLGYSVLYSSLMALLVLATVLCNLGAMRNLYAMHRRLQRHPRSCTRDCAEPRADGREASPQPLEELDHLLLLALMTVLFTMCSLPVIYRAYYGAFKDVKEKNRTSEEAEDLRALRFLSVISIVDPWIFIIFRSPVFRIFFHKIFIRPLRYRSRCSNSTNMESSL

human DP2 receptor = biological target: T3, human DP2 receptor (Homo sapiens, UniProt Q9Y5Y4); assay: DP2/CRTH2 radioligand binding assay using [3H]PGD2; conditions: [3H]PGD2 binding, membranes of HEK293 cells expressing recombinant human DP2; read-out: hDP2
T3 construct: expressed in transfected cells
T3 sequence (Q9Y5Y4 1-395): T1 sequence (Q9Y5Y4 1-395)
In short: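 HEK293 membranes with stable recombinant human DP2, incubated with 1 nM [3H]PGD2 and compound 60 min at room temperature in pH 7.4 HEPES/MnCl2/EDTA buffer, with or without 0.2% human serum albumin.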

Row | IC50 [1] [µM] | IC50 (human DP1 receptor) [nM] | IC50 (human DP2 receptor) [nM] | SMILES
1 | < 0.3 | > 1000 | < 300 | CCN(Cc1cc(C(F)(F)F)ccc1-c1cc(CC(=O)O)ccc1OC)C(=O)COc1ccc(Cl)cc1 [Compound 1-93, [2′-({[2-(4-Chloro-phenoxy)-acetyl]-ethyl-amino}-methyl)-6-methoxy-4′-trifluoromethyl-biphenyl-3-yl]-acetic acid]
2 | < 0.3 | > 1000 | < 300 | CN(Cc1cc(C(F)(F)F)ccc1-c1cc(CC(=O)O)ccc1F)C(=O)OCc1ccccc1 [Compound 1-29, {2′-[(Benzyloxycarbonyl-methyl-amino)-methyl]-6-fluoro-4′-trifluoromethyl-biphenyl-3-yl}-acetic acid]
3 | < 0.3 | > 1000 | < 300 | CCN(Cc1cc(C(F)(F)F)ccc1-c1cc(CC(=O)O)ccc1Cl)C(=O)OCc1ccccc1 [Compound 1-110]
4 | < 0.3 | > 1000 | < 300 | CCN(Cc1cc(C(F)(F)F)ccc1-c1cc(CC(=O)O)ccc1OC)C(=O)OC(C)c1ccc(Cl)cc1 (stereo not drawn) [Compound 1-44, [2′-({[1-(4-Chloro-phenyl)-ethoxycarbonyl]-ethyl-amino)-methyl)-6-methoxy4′-trifluoromethyl-biphenyl-3-yl]-acetic acid]
5 | < 0.3 | > 1000 | < 300 | COc1ccc(CC(=O)O)cc1-c1ccc(C(F)(F)F)cc1CN(C)C(=O)OCc1ccccc1 [Compound 1-27, {2′-[(Benzyloxycarbonyl-methyl-amino)-methyl]-6-methoxy-4′-trifluoromethyl-biphenyl-3-yl)-acetic acid]
